Assay results published in US4311837A, “Certain heterocyclic thiomethyl derivatives of 7-(dihalogenated phenylthioacetamido)cephalosporanic acids useful in the treatment of infections caused by _Streptococcus faecalis” (Eli Lilly and Company, priority 1980, dated 1982).

system: Streptococcus faecalis; test: In vitro antibacterial activity against eleven strains of Streptococcus faecalis (agar dilution method; tube dilution per footnote); format: cell-based; conditions: Enterococcus faecalis, geometric mean against eleven strains of Streptococcus faecalis
Text: […] faecalis is classified as a species of Group D β-hemolytic streptococci, also known as enterococci. Infections caused by Group D β-hemolytic streptococci, in particular […] faecalis, are generally known to be resistant to cephalosporin antibiotics. The infections caused by Group D streptococci commonly involve the endocardium (endocarditis), the urinary tract, the intestines, the biliary tract, postoperative wounds, and interabdominal abscesses. Endocarditis is clinically a very important disease and is frequently difficult to treat by antibiotic therapy. The disease is commonly treated by infusion of penicillin G in combination with streptomycin or vancomycin. […] The results are shown in Table 1 where the activity is measured by the MIC values, defined as the concentration of the compound capable of inhibiting the growth of the test organism. |In Vitro Antibacterial Activity Against Eleven |Strains of Streptococcus faecalis | *Geometric mean MIC as determined by the tube dilution method against | eleven strains of Streptococcus faecalis.

Row | SMILES | MIC
1 | CC(=O)OCC1=C(C(=O)O)N2C(=O)C(NC(=O)CSc3cc(Cl)ccc3Cl)C2SC1 (stereo not drawn) | 2 µg/mL
2 | O=C(CSc1cc(Cl)ccc1Cl)NC1C(=O)N2C(C(=O)O)=C(CSc3cnsn3)CSC12 (stereo not drawn) | 1.37 µg/mL
3 | Cc1nnc(SCC2=C(C(=O)O)N3C(=O)C(NC(=O)CSc4cc(Cl)ccc4Cl)C3SC2)o1 (stereo not drawn) | 2.13 µg/mL
4 | Cn1nnnc1SCC1=C(C(=O)O)N2C(=O)C(NC(=O)CSc3ccc(Cl)c(Cl)c3)C2SC1 (stereo not drawn) | 4.83 µg/mL
5 | O=C(CSc1cc(Cl)ccc1Cl)NC1C(=O)N2C(C(=O)O)=C(CO)CS[C@H]12 (stereo partly drawn) [OH, 7-[2-[(2,5-Dichlorophenyl)thio]acetamido]-3-hydroxymethyl-3-cephem-4-carboxylic acid] | 3.11 µg/mL
6 | Cn1nnnc1SCC1=C(C(=O)O)N2C(=O)C(NC(=O)CSc3cc(Cl)ccc3Cl)C2SC1 (stereo not drawn) | 3.11 µg/mL
7 | Cc1nnc(SCC2=C(C(=O)O)N3C(=O)C(NC(=O)CSc4cc(Cl)ccc4Cl)C3SC2)s1 (stereo not drawn) | 1.29 µg/mL
8 | O=C(CSc1cc(Cl)ccc1Cl)NC1C(=O)N2C(C(=O)O)=C(CSc3ncco3)CSC12 (stereo not drawn) | 1.88 µg/mL
9 | Nc1nnc(SCC2=C(C(=O)O)N3C(=O)C(NC(=O)CSc4cc(Cl)ccc4Cl)C3SC2)s1 (stereo not drawn) | 4.26 µg/mL
10 | Cn1c(SCC2=C(C(=O)O)N3C(=O)C(NC(=O)CSc4cc(Cl)ccc4Cl)C3SC2)nnc(O)c1=O (stereo not drawn) | 3.76 µg/mL
11 | Cc1nsc(SCC2=C(C(=O)O)N3C(=O)C(NC(=O)CSc4cc(Cl)ccc4Cl)C3SC2)n1 (stereo not drawn) | 1.88 µg/mL
12 | Cc1nnc(SCC2=C(C(=O)O)N3C(=O)C(NC(=O)CSc4ccc(Cl)c(Cl)c4)C3SC2)s1 (stereo not drawn) | 1.76 µg/mL
